Test results taken from article PMC7226839, “Modulation of STAT3 Signaling, Cell Redox Defenses and Cell Cycle Checkpoints by β-Caryophyllene in Cholangiocarcinoma Cells: Possible Mechanisms Accounting for Doxorubicin Chemosensitization and Chemoprevention” (Cells, 2020).
Counter-ions that a name gives are not always drawn. Like-named read-outs stand apart in the source and are kept apart here.

Assays:
[1] = system: H69 noncancerous cholangiocytes; assay: Annexin-V-FITC fluorescence microscopy, semiquantitative; type: cell-based; settings: H69, 24 h, β-caryophyllene 50 µM, doxorubicin 20 µM
Protocol: (§1) Apoptosis extent was evaluated by Annexin-V staining (Annexin V Apoptosis detection kit, Santa Cruz Biotechnology, DBA, Milan, Italy), which is known to specifically binds phosphatidylserine, a […] which is normally embedded in the inner leaflet of plasma membrane and externalized during apoptosis, as a result of the membrane changes. Therefore, apoptotic cells can be directly detected through their staining with the fluorochrome-conjugated Annexin V. The analysis was performed by both fluorescence microscopy and flow cytometry in order to both visualize the event and to achieve a quick and accurate quantification of apoptotic cells.

[2] = system: H69 noncancerous cholangiocytes; assay: Annexin-V-Cy3/CFDA flow cytometry (apoptotic and viable cells); type: cell-based; settings: for inhibition of viable cells (CF fluorescence): H69, 2 h and 24 h, maximum
Protocol: as §1
For flow cytometry analysis, the cells (1 × 10^6 cells) were grown in 6-well plates, treated with β-caryophyllene (50 µM) and doxorubicin (20 µM), alone and in combination for the required time exposure, then collected by trypsinization and resuspended in PBS in the presence of the fluorochrome Annexin-V-Cy3 (4 μg/mL in cell suspension). In order to detect viable cells, the nonfluorescent probe carboxyfluorescein diacetate (CFDA; 2 μg/mL in cell suspension), hydrolyzed in living cells by esterases to its fluorescent carboxyfluorescein metabolite (CF), was included too. For each sample, the mean fluorescence of Annexin-V-Cy3 (excitation/emission at 543/570 nm, respectively) and CF (excitation/emission at 492/514 nm, respectively) in 50,000 cells was measured using a BD Accuri^TM C6 flow cytometer, FL-2 and FL-1 channels respectively (BD Biosciences, Milan, Italy). Although standard flow cytometry apoptosis assays use Annexin V-FITC, we chosen the conjugate with Cy3 in order to avoid the overlapping in the excitation wavelength of annexin V-FITC and CF, which could interfere with the analysis. Cells undergoing apoptosis were also sorted by their typical forward- and side scatter (FSC-SSC) pattern, i.e., increased SSC and decreased FSC, respect to the viable cells. Multiparameter analysis and gating of forward and side scatter as well as fluorescence detection were performed using a BD Accuri^TM C6 Software version 1.0.264.21 (BD Biosciences, Milan, Italy).

[3] = system: Mz-ChA-1 cholangiocarcinoma cells; assay: cells; settings: Homo sapiens, combination with 50 µM β-caryophyllene
Protocol: To perform the assay, the cells were grown for 24 h into 96-well microplates (2 × 10^4 cells/well), then treated with the test substances and incubated according to the applied protocol schedule [26]. At the end of incubation, the cytotoxicity was measured by the 3-[4,5-dimethylthiazol-2-yl] -2,5-diphenyl tetrazolium bromide (MTT) assay, using an Epoch Microplate Spectrophotometer (BioTek, AHSI, Milan Italy). At least three biologic replicates, in which each concentration was tested in triplicate, were made. Comparing the number of viable cells in each treatment respect to the vehicle control allows to measure a cell viability reduction. The effect of the treatment was considered as cytotoxic when at least a 30% lowering of cell viability occurred [59].
In the single long-term schedule, confluence cells were exposed to the test substances for 24 h and 72 h (Figure S1), then the cytotoxicity was measured by the MTT assay. Under the metronomic treatment, the cells were subjected to a short and/or repeated exposure of 2 h to the test substances (Figure S2), as follow: 1) single treatment, the cells were treated for 2 h, then washed and incubated for 72 h; 2) two-repeated treatments, the cells were exposed to the test substances for 2 h, then washed and incubated for functional recovery for further 2 h. After recovering, the cells were further treated with the test substances for 2 h, washed and incubated for 72 h. Finally, the cytotoxicity was measured by the MTT assay as described above.
The type of interaction between β-caryophyllene and doxorubicin, i.e., synergy, additivity or antagonism, was evaluated by measuring three parameters: reversal ratio value (RR), combination index (CI) and isobolographic analysis (IB) [24].
RR represents the cytotoxicity enhancement ratio and allows to quantify the efficacy increase of a drug (A) in the presence of a chemosensitizing agent (B), by relating the IC50 of A alone (CA) and that of IC50 of its combination with B (CA+B).
CI gives a quantitative measure of the interaction and is calculated as follow: (CA,X/ICX,A) + (CB, X/ICX,B), in which CA,X and CB,X are the concentrations of A and B at the IC50 value of their combination, whereas ICX,A and ICX,B are the IC50 values of the substances alone. When the CI value was equal to, less or higher than 1, the interaction between test substances was evaluated as additivity, synergism and antagonism, respectively.
The isobolographic analysis, displaying the extent of the interaction between drug A and the potential chemosensitizer B, was obtained by a two-coordinate plot, wherein the IC50 concentrations of A and B were plotted on the x and y axes, corresponding to (CA, 0) and (C0, B), respectively. The substance concentrations used in the combination (CA+B) were placed in the same plot. A nonlinear regression analysis was carried out by GraphPad Prism™ 6.00 software, in order to connect the IC50 value of each drug alone and that of the combination, whereas the line connecting CA and CB represented an additive interaction. A synergism between A and B occurred when CA+B were located below the line, while the interaction was antagonistic when the values were above the line [60].

[4] = system: γH2AX in H69 noncancerous cholangiocytes; assay: Western blotting of phosphorylated H2AX (Ser139); type: cell-based; settings: for increase of γH2AX with respect to control: doxorubicin 20 µM
Protocol: (§2) To perform the analysis, the cells were seeded in 6-well plates, then subjected to the treatment with β-caryophyllene (50 µM) and doxorubicin (20 µM), alone and in combination, for the required time exposure, then harvested by centrifugation and washed in PBS. A lysis buffer, containing SDS (2% w/w), Tris-hydrochloride (20 mM; pH 7.4), urea (2 M), glycerol (10% w/w), sodium orthovanadate (2 mM), DTT (10 mM) and a protease inhibitors cocktail (1:100 dilution) was used to achieve the cell protein separation. The separated proteins were resolved by SDS-PAGE 10% TGX FastCast™ Acrylamide gel (BioRad, Segrate, Italy) and transferred on PVDF membranes (BioRad, Segrate, Italy) by using a Trans-Blot® Turbo™ Transfer System (BioRad, Segrate, Italy). The membranes were blocked with a 0.2% w/v I-block (Thermo Fisher Scientific, Rodano, Italy) in Tris-buffered saline containing 0.05% Tween-20 (TBS-T), then stained with the desired primary antibodies. […] After rinsing three times in TBS-T to remove unbound primary antibody, the membranes were incubated for an additional hour with the appropriate horseradish peroxidase- or alkaline phosphatase-conjugated secondary antibody (Jackson ImmunoResearch, Pero, Italy). […] Each experiment was performed at least in three replicates.

[5] = system: ROS in H69 noncancerous cholangiocytes; assay: Intracellular ROS determination (DCFH-DA); type: cell-based; settings: H69, 24 h, β-caryophyllene 50 µM, doxorubicin 20 µM
Protocol: To perform the assay, the cells, seeded in 6-well plates (1 × 10^6 cells/well), were treated with the tested substances (β-caryophyllene, 50 µM; doxorubicin, 20 µM) for the required time exposure, then the ROS levels were measured in the pellets by the 2,7-dichlorofluorescein diacetate assay (DCFH-DA), as previously reported. […] In each experiment, a vehicle control, corresponding to a basal ROS level, were included too. For all the treatments, the mean DCF fluorescence of 50,000 cells was determined by a BD Accuri^TM C6 Software version 1.0.264.21 (BD Biosciences, Milan, Italy).

[6] = system: phospho(Tyr705)-STAT3 in H69 cholangiocytes; assay: Western blotting of phospho(Tyr705)-STAT3; type: cell-based; settings: for enhancement of basal phospho(Tyr705)-STAT3 expression: doxorubicin 20 µM
Protocol: as §2

[7] = system: Mz-ChA-1 cholangiocarcinoma cells; assay: Cell cycle analysis (PI flow cytometry); type: cell-based, human; settings: Mz-ChA-1, 24 h
Protocol: Analysis of cell cycle progression was performed by applying a one parameter flow cytometric method, in which cell cycle distribution was evaluated on the basis of DNA content. Briefly, after treatments, the harvested cells (about 1 × 10^6 cells) were fixed in ice cold 70% ethanol and stored for at least 2 h at 4 °C. Thereafter, the ethanol-suspended cells were separated by centrifugation, rinsed in PBS, then resuspended in a propidium iodide (PI) staining solution, containing 0.1% v/v Triton X-100, 10 μg/mL PI and 100 μg/mL DNase-free RNase A in PBS and stored at 4 °C in the dark for at least 30 min. For each sample, the mean fluorescence of PI (maximum excitation of PI bound to DNA at 536 nm; emission at 617 nm) in 50,000 cells was measured using a BD Accuri^TM C6 flow cytometer FL2 channel (BD Biosciences, Milan, Italy) and deconvolution of the DNA content frequency histograms, to estimate the proportions of cells in the respective phases of the cycle, was made by Modfit 4.1 software (Verity Software House, Topsham, ME, USA).

[8] = system: Mz-ChA-1 cholangiocarcinoma cells; assay: Annexin-V-FITC fluorescence microscopy, semiquantitative; type: cell-based, human; settings: Mz-ChA-1, 24 h, β-caryophyllene 50 µM, doxorubicin 20 µM
Protocol: as §1

[9] = 24 h, read-out: IC50 (CL), Mz-ChA-1, 24 h exposure
[10] = 72 h, read-out: IC50 (CL), Mz-ChA-1, 72 h exposure
[11] = read-out: IC50 (CL), Mz-ChA-1, double repeated 2 h exposure + 72 h recovery
[12] = read-out: IC50 (CL), Mz-ChA-1, single 2 h exposure + 72 h recovery
[13] = β-caryophyllene 50 µM, doxorubicin 20 µM

Compound | Annexin V H69 (semiquantitative apoptosis score) [1] | inhibition of viable cells (CF fluorescence) [2] | increase of apoptotic rate ([2]; H69, 24 h, doxorubicin 20 µM) [fold] | IC50 [3, 9] [µM] | IC50 [3, 10] [µM] | IC50 [3, 11] [µM] | IC50 [3, 12] [µM] | increase of γH2AX with respect to control ([4]; H69, 2 h) [fold] | increase of γH2AX with respect to control ([4]; H69, 24 h) [fold] | enhancement in ROS amount compared the control [5] | enhancement of basal phospho(Tyr705)-STAT3 expression ([6]; H69, 2 h) [fold] | enhancement of basal phospho(Tyr705)-STAT3 expression ([6]; H69, 24 h) [fold] | increase of cell accumulation in S-phase compared the control ([7]; doxorubicin 20 µM) [fold] | reduction of G0/G1 phase ([7]; doxorubicin 20 µM) | increase in G2/M phase vs. control [7, 13] | Annexin V Mz-ChA-1 (semiquantitative apoptosis score) [8] | lowering of basal apoptosis (annexin-V-Cy3) ([2]; H69, both time exposures, β-caryophyllene 50 µM) [fold] | effect on γH2AX levels ([4]; H69, 50 µM, 2 h and 24 h) | effect on phospho(Tyr705)-STAT3 expression ([6]; H69, β-caryophyllene 50 µM alone) | increase in G0/G1 phase vs. control ([7]; β-caryophyllene 50 µM)
COc1cccc2c1C(=O)c1c(O)c3c(c(O)c1C2=O)C[C@@](O)(C(=O)CO)C[C@@H]3O[C@H]1C[C@H](N)[C@H](O)[C@H](C)O1 [Doxorubicin, doxorubicin hydrochloride] | + (11%–30% = +) | ≤ 1.4 fold | ~1.5 | 27.8 | 3.8 | 11.6 | 19.8 | ~40 | ~200 | at least 3 fold | ~6 | ~10 | ~1.6 | at least 4 fold | about 1.4 fold | + (11%–30% = +) |  |  |  | 
C=C1CC/C=C(\C)CC[C@@H]2[C@@H]1CC2(C)C [β-Caryophyllene, β-caryophyllene] | – (0%–5% = negative) | about 1.2 fold |  | 124 | 90 | 140 | 172 |  |  | 1.3 fold |  |  |  |  | about 1.5 fold | +/- (6%–10% = +/−) | 1.2 | null effects | did not affected the protein expression | about 1.2 fold
